According to patent US7803930B2, “Antisense modulation of apolipoprotein B-expression” (Isis Pharmaceuticals, Inc., priority 2002, dated 2010):
In the oligonucleotide strings, read from the 5' end, every base follows the letter of its sugar. An asterisk marks phosphorothioate; unmarked linkages are phosphodiester. Other units and linkages are bracketed, terminal groups are in braces. A string of capitals states the bases alone. e = 2'-O-(2-methoxyethyl) (MOE); [5mC] = 5-methylcytosine; d = 2'-deoxy (DNA)

Tested on: rabbit apolipoprotein B mRNA
Experiment: Inhibition of rabbit apolipoprotein B mRNA levels in primary rabbit hepatocytes, real-time PCR
Type: cell-based
Set-up: % INHIB of rabbit apolipoprotein B mRNA levels: concentration or dose not given beside the values
Settings: for Percent Inhibition of rabbit apolipoprotein B mRNA levels: averages from two experiments
Excerpt: Primary rabbit hepatocytes were purchased from Invitro Technologies (Gaithersburg, Md.) and maintained in Dulbecco's modified Eagle's medium (Gibco). When purchased, the cells had been seeded into 96-well plates for use in RT-PCR analysis and were confluent.
In accordance with the present invention, a series of oligonucleotides was designed to target different regions of rabbit apolipoprotein B, using published sequences (GenBank accession number X07480.1, incorporated herein as SEQ ID NO: 808, GenBank accession number M17780.1, incorporated herein as SEQ ID NO: 809, and a sequence was derived using previously described primers (Tanaka, Journ. Biol. Chem., 1993,268, 12713-12718) representing an mRNA of the rabbit apolipoprotein B, incorporated herein as SEQ ID NO: 810). “Target site” indicates the first (5′-most) nucleotide number on the particular target sequence to which the oligonucleotide binds. All compounds in Table 21 are chimeric oligonucleotides (“gapmers”) 20 nucleotides in length, composed of a central “gap” region consisting of ten 2′-deoxynucleotides, which is flanked on both sides (5′ and 3′ directions) by five-nucleotide “wings”. The wings are composed of 2′-methoxyethyl (2′-MOE)nucleotides. The internucleoside (backbone) linkages are phosphorothioate (P═S) throughout the oligonucleotide. All cytidine residues are 5-methylcytidines. The compounds were analyzed for their effect on rabbit apolipoprotein B mRNA levels in primary rabbit hepatocytes by quantitative real-time PCR as described in other examples herein. Primary rabbit hepatocytes were treated with 150 nM of the compounds in Table 21. For rabbit apolipoprotein B the PCR primers were: • forward primer: AAGCACCCCCAATGTCACC (SEQ ID NO: 811) • reverse primer: […] (SEQ ID NO: 812) and the PCR probe was: FAM-[…]-TAMRA (SEQ ID NO: 813) where FAM (PE-Applied Biosystems, Foster City, Calif.) is the fluorescent reporter dye) and TAMRA (PE-Applied Biosystems, Foster City, Calif.) is the quencher dye. Data are averages from two experiments. If present, “N.D.” indicates “no data”.
In accordance with the present invention, a subset of the antisense oligonuclotides in Example 42 was further investigated in dose-response studies. Treatment doses were 10, 50, 150 and 300 nM. ISIS 233160 (SEQ ID NO: 824), ISIS 233166 (SEQ ID NO: 830), ISIS 233172 (SEQ ID NO: 835), ISIS 233175 (SEQ ID NO: 838), and ISIS 233183 (SEQ ID NO: 846) were analyzed for their effect on rabbit apolipoprotein B mRNA levels in primary rabbit hepatocytes by quantitative real-time PCR as described in other examples herein.

Row | Substance | % INHIB of rabbit apolipoprotein B mRNA levels [%] | other results
1 | 233152 (antisense eT*e[5mC]*eA*eG*e[5mC]*dA*d[5mC]*dG*dT*dA*dG*d[5mC]*dA*dA*dT*eG*e[5mC]*eA*eT*eT) [compound 233152] | 0 | –
2 | 233150 (antisense eG*e[5mC]*eG*eT*eT*dG*dT*d[5mC]*dT*d[5mC]*d[5mC]*dG*dA*dT*dG*eT*eT*e[5mC]*eT*eG) [compound 233150] | 20 | –
3 | 233166 (antisense eG*eG*eA*eT*e[5mC]*dA*d[5mC]*dA*dT*dG*dA*d[5mC]*dT*dG*dA*eA*eT*eG*e[5mC]*eT) [compound 233166] | 82 | Percent Inhibition of rabbit apolipoprotein B mRNA levels (10 nM): 66%; Percent Inhibition of rabbit apolipoprotein B mRNA levels (50 nM): 81%; Percent Inhibition of rabbit apolipoprotein B mRNA levels (150 nM): 79%; Percent Inhibition of rabbit apolipoprotein B mRNA levels (300 nM): 73%
4 | 233185 (antisense e[5mC]*eA*eA*e[5mC]*eA*dA*dT*dG*dT*d[5mC]*dT*dG*dA*dT*dT*eG*eG*eT*eT*eA) [compound 233185] | 73 | –
5 | 233161 (antisense eT*eT*eG*eG*e[5mC]*dA*dT*dT*dA*dT*d[5mC]*d[5mC]*dA*dA*dT*eG*e[5mC]*eA*eG*eT) [compound 233161] | 28 | –
6 | 233169 (antisense eG*e[5mC]*eT*e[5mC]*eA*dT*dT*d[5mC]*dT*d[5mC]*d[5mC]*dA*dG*d[5mC]*dA*eT*e[5mC]*eA*eG*eG) [compound 233169] | 14 | –
7 | 233168 (antisense eG*eG*eA*e[5mC]*eT*dG*dT*dA*d[5mC]*d[5mC]*dT*d[5mC]*dA*dA*dG*e[5mC]*eT*eG*eG*eT) [compound 233168] | 0 | –
8 | 233167 (antisense eT*e[5mC]*eA*eA*eG*d[5mC]*dT*dG*dG*dT*dT*dG*dT*dT*dG*e[5mC]*eA*e[5mC]*eT*eG) [compound 233167] | 28 | –
9 | 233174 (antisense eT*eG*eT*eG*e[5mC]*dA*d[5mC]*dG*dG*dA*dT*dA*dT*dG*dA*eT*eA*eA*e[5mC]*eG) [compound 233174] | 21 | –
10 | 233162 (antisense eG*eT*eT*eG*e[5mC]*d[5mC]*dT*dT*dG*dT*dG*dA*dG*d[5mC]*dA*eG*e[5mC]*eA*eG*eT) [compound 233162] | 0 | –
11 | 233176 (antisense eG*eA*eA*eA*eT*d[5mC]*dT*dG*dG*dA*dA*dG*dA*dG*dA*eG*eA*e[5mC]*e[5mC]*eT) [compound 233176] | 62 | –
12 | 233183 (antisense e[5mC]*eA*eG*eT*eG*dT*dA*dA*dT*dG*dA*dT*d[5mC]*dG*dT*eT*eG*eA*eT*eT) [compound 233183] | 88 | Percent Inhibition of rabbit apolipoprotein B mRNA levels (10 nM): 30%; Percent Inhibition of rabbit apolipoprotein B mRNA levels (50 nM): 71%; Percent Inhibition of rabbit apolipoprotein B mRNA levels (150 nM): 81%; Percent Inhibition of rabbit apolipoprotein B mRNA levels (300 nM): 80%
13 | 233191 (antisense eG*eA*eA*eA*eT*dG*dG*dA*dA*dT*dT*dG*dT*dA*dG*eT*eT*e[5mC]*eT*e[5mC]) [compound 233191] | 31 | –
14 | 233151 (antisense eT*eA*eA*eT*e[5mC]*dA*dT*dT*dA*dA*d[5mC]*dT*dT*dG*d[5mC]*eT*eG*eT*eG*eG) [compound 233151] | 20 | –
15 | 233186 (antisense eG*eA*eA*eG*eA*dG*dG*dA*dA*dG*dA*dA*dA*dG*dG*eA*eT*eA*eT*eG) [compound 233186] | 60 | –
16 | 233159 (antisense eT*e[5mC]*eA*eG*eT*dG*d[5mC]*d[5mC]*d[5mC]*dA*dA*dG*dA*dT*dG*eT*e[5mC]*eA*eG*e[5mC]) [compound 233159] | 0 | –
17 | 233154 (antisense e[5mC]*eA*eA*eT*eT*dG*dA*dA*dT*dG*dT*dA*d[5mC]*dT*d[5mC]*eA*eG*eA*eT*eA) [compound 233154] | 18 | –
18 | 233163 (antisense eA*eT*eT*eG*eT*dG*dA*dG*dT*dG*dG*dA*dG*dA*dT*eA*e[5mC]*eT*eT*e[5mC]) [compound 233163] | 80 | –
19 | 233182 (antisense e[5mC]*eT*eT*eG*eA*dT*dA*d[5mC]*dT*dT*dG*dG*dT*dA*dT*e[5mC]*e[5mC]*eA*e[5mC]*eA) [compound 233182] | 59 | –
20 | 233160 (antisense eA*eT*eT*eG*eG*dA*dA*dT*dA*dA*dT*dG*dT*dA*dT*e[5mC]*e[5mC]*eA*eG*eG) [compound 233160] | 81 | Percent Inhibition of rabbit apolipoprotein B mRNA levels (10 nM): 33%; Percent Inhibition of rabbit apolipoprotein B mRNA levels (50 nM): 67%; Percent Inhibition of rabbit apolipoprotein B mRNA levels (150 nM): 74%; Percent Inhibition of rabbit apolipoprotein B mRNA levels (300 nM): 80%
21 | 233178 (antisense eG*eA*eT*eA*eA*d[5mC]*dT*d[5mC]*dT*dG*dT*dG*dA*dG*dG*eG*eT*eA*eG*e[5mC]) [compound 233178] | 0 | –
